Molecules are shown by their SMILES.

The test relates to HBV. Put plainly: Anti-HBV activity in vitro: quantification of extracellular HBV DNA by direct qPCR in HepAD38 cells. The note with it: Hepatitis B virus, doxycycline-free medium, 96 hours at 37°C, 8-point dose-response curve, read-out: HBV inh EC50. In kind it is cell-based. The source says:
HepAD38 cell line (Ladner et al., Antimicrob Agents Chemother, 1997, 41, 1715-20) was used for HBV inhibition assays. HepAD38 is a subclone, derived from hepatoblastoma cell line HepG2 (ATCC® Number: HB-8065™), that expresses HBV genome under the transcriptional control of a tetracycline-responsive promoter in a TET-OFF system: addition of doxycycline, an antibiotic belonging to the class of tetracycline, suppresses HBV replication, while its removal switches on the process allowing HBV viral particles release in the cell supernatant. HepAD38 cell line is maintained in DMEM/F12, supplemented with 10% of fetal bovine serum, 1% of glutamine, 1% of penicillin/streptomycin, 0.4 mg/ml G418 and 0,3 ug/ml tetracycline. For the HBV inhibition assay, doxycycline-free medium is used in order to allow virion production.
HBV inhibition activity in vitro was performed in 96 multiwell plates. During the initial (primary) screening, compounds were first tested in triplicates at concentrations of 0.02 µM, 0.1µM, 0.5µM and 1µM. For selected compounds, an 8-point dose-response curve was obtained using 1:2 serial dilutions (starting from 0.01µM, 0.1µM, 0.4µM or 5 µM, depending on the degree of inhibition observed during the primary screening). From the dose-response curves, half maximal effective concentration (EC50) could be calculated (see also below).
In more detail, compounds - typically dissolved in DMSO stock solutions - were diluted to 2x the final desired concentration in 100 µl of the above medium (without doxycycline) and plated in three replicates in the 96-well plates.
Simultaneously, HepAD38 cells - extensively pre-washed in doxycycline-free medium in order to induce HBV production - were suspended at 2^∗10^4 cells in 100 µl of doxycycline-free medium and added to each well of the plate, to yield a final assay volume of 200 µl DMSO - used for stock solutions and compounds dilutions - which was always present in the assays at a final concentration of 0.5%.
Plates were then incubated 96 hours at 37°C and then subjected to cell viability assays and extracellular HBV quantification, in order to evaluate both the cytotoxic potential and the antiviral activity of compounds. Cytotoxicity was assessed by a commercial fluorescence assay that measures the metabolic activity of cells, directly related to cell viability (Cell Titer Blue, Promega). Anti-HBV activity was evaluated by quantification of extracellular HBV DNA with direct qPCR. In particular, supernatant was collected and centrifuged for cell debris clarification, viral DNA was extracted from virions by addition of lysis buffer (1 mM 1,4-dithiothreitol, 0.2% sodium dodecyl sulphate) and incubated at 95°C for 10 min. Samples were then diluted 1:40 and real time PCR amplification was performed with SYBR green assay (Power SYBR™ Green PCR Master Mix-Thermo Fisher Scientific) and specific HBV primer (HBV-DF:5'-[…]-3' (SEQ ID No. 1), HBV-DR:5'-[…]-3' (SEQ ID No. 2)).
Antiviral activity data for each compound are reported as EC50 value (see Table 1 legend). Excel and Graphpad Prism programs are typically used for data elaboration and EC50 calculation.
(Quantitative PCR measures a nucleic acid by following its amplification.)
Take `Cn1cc2c(c1C(=O)Nc1ccc(F)c(Cl)c1)OCC1(CN(C(=O)C(=O)N3CC(F)(F)C3)C1)NS2(=O)=O` [Example E17, N-(3-chloro-4-fluorophenyl)-1-(2-(3,3-difluoroazetidin-1-yl)-2-oxoacetyl)-7'-methyl-2'H,4'H,7'H-spiro[azetidine-3,3'-pyrrolo[3,4-b][1,4,5]oxathiazepine]-6'-carboxamide 1',1'-dioxide]: the EC50 is < 500 nM.

Turning to `C[C@H](NC(=O)C(=O)N1CC2(COc3c(cn(C)c3C(=O)Nc3ccc(F)c(C(F)F)c3)S(=O)(=O)N2)C1)C(F)(F)F` [Example E18, (S)-N-(3-(difluoromethyl)-4-fluorophenyl)-7'-methyl-1-(2-oxo-2-((1,1,1-trifluoropropan-2-yl)amino)acetyl)-2'H,4'H,7'H-spiro[azetidine-3,3'-pyrrolo[3,4-b][1,4,5]oxathiazepine]-6'-carboxamide 1',1'-dioxide], the EC50 is < 500 nM.

Turning to `Cn1cc2c(c1C(=O)Nc1ccc(F)c(C(F)F)c1)OCC1(CN(C(=O)C(=O)NC3CC3)C1)NS2(=O)=O` [Example E19, 1-(2-(cyclopropylamino)-2-oxoacetyl)-N-(3-(difluoromethyl)-4-fluorophenyl)-7'-methyl-2'H,4'H,7'H-spiro[azetidine-3,3'-pyrrolo[3,4-b][1,4,5]oxathiazepine]-6'-carboxamide 1',1'-dioxide], the EC50 was < 500 nM.

As to `Cn1cc2c(c1C(=O)Nc1ccc(F)c(Cl)c1)OC[C@]1(CCN(C(=O)C(=O)NCC(F)(F)F)C1)NS2(=O)=O` [Example E20, (R)-N-(3-chloro-4-fluorophenyl)-7'-methyl-1-(2-oxo-2-((2,2,2-trifluoroethyl)amino)acetyl)-2'H,4'H,7'H-spiro[pyrrolidine-3,3'-pyrrolo[3,4-b][1,4,5]oxathiazepine]-6'-carboxamide 1',1'-dioxide], the EC50 was < 500 nM.

As to `Cn1cc2c(c1C(=O)Nc1ccc(F)c(Cl)c1)OC[C@]1(CCN(C(=O)C(=O)NC(C)(C)C(F)(F)F)C1)NS2(=O)=O` [Example E21, (R)-N-(3-chloro-4-fluorophenyl)-7'-methyl-1-(2-oxo-2-((1,1,1-trifluoro-2-methylpropan-2-yl)amino)acetyl)-2'H,4'H,7'H-spiro[pyrrolidine-3,3'-pyrrolo[3,4-b][1,4,5]oxathiazepine]-6'-carboxamide 1',1'-dioxide], the EC50 is < 500 nM.

Consider `C[C@H](NC(=O)C(=O)N1CC[C@]2(COc3c(cn(C)c3C(=O)Nc3ccc(F)c(Cl)c3)S(=O)(=O)N2)C1)C(F)(F)F` [Example E22, (R)-N-(3-chloro-4-fluorophenyl)-7'-methyl-1-(2-oxo-2-(((S)-1,1,1-trifluoropropan-2-yl)amino)acetyl)-2'H,4'H,7'H-spiro[pyrrolidine-3,3'-pyrrolo[3,4-b][1,4,5]oxathiazepine]-6'-carboxamide 1',1'-dioxide], for which the EC50 was < 500 nM.

Take `C[C@H](NC(=O)C(=O)N1CC[C@]2(COc3c(cn(C)c3C(=O)Nc3ccc(F)c(C(F)F)c3)S(=O)(=O)N2)C1)C(F)(F)F` [Example E23, (R)-N-(3-(difluoromethyl)-4-fluorophenyl)-7'-methyl-1-(2-oxo-2-(((S)-1,1,1-trifluoropropan-2-yl)amino)acetyl)-2'H,4'H,7'H-spiro[pyrrolidine-3,3'-pyrrolo[3,4-b][1,4,5]oxathiazepine]-6'-carboxamide 1',1'-dioxide]: the EC50 is < 500 nM.

As to `Cn1cc2c(c1C(=O)Nc1ccc(F)c(C(F)F)c1)OC[C@]1(CCN(C(=O)C(=O)NC(C)(C)C(F)(F)F)C1)NS2(=O)=O` [Example E24, (R)-N-(3-(difluoromethyl)-4-fluorophenyl)-7'-methyl-1-(2-oxo-2-((1,1,1-trifluoro-2-methylpropan-2-yl)amino)acetyl)-2'H,4'H,7'H-spiro[pyrrolidine-3,3'-pyrrolo[3,4-b][1,4,5]oxathiazepine]-6'-carboxamide 1',1'-dioxide], the EC50 is < 500 nM.

As for `Cn1cc2c(c1C(=O)Nc1ccc(F)c(Cl)c1)OC[C@@]1(CCN(C(=O)C(=O)NC(C)(C)C(F)(F)F)C1)NS2(=O)=O` [Example E26, (S)-N-(3-chloro-4-fluorophenyl)-7'-methyl-1-(2-oxo-2-((1,1,1-trifluoro-2-methylpropan-2-yl)amino)acetyl)-2'H,4'H,7'H-spiro[pyrrolidine-3,3'-pyrrolo[3,4-b][1,4,5]oxathiazepine]-6'-carboxamide 1',1'-dioxide], the EC50 is < 500 nM.

As for `Cn1cc2c(c1C(=O)Nc1ccc(F)c(C(F)F)c1)OC[C@@]1(CCN(C(=O)C(=O)NCC(F)(F)F)C1)NS2(=O)=O` [Example E27, (S)-N-(3-(difluoromethyl)-4-fluorophenyl)-7'-methyl-1-(2-oxo-2-((2,2,2-trifluoroethyl)amino)acetyl)-2'H,4'H,7'H-spiro[pyrrolidine-3,3'-pyrrolo[3,4-b][1,4,5]oxathiazepine]-6'-carboxamide 1',1'-dioxide], the EC50 was < 500 nM.

Turning to `Cn1cc2c(c1C(=O)Nc1ccc(F)c(C(F)F)c1)OC[C@@]1(CCN(C(=O)C(=O)NC(C)(C)C(F)(F)F)C1)NS2(=O)=O` [Example E28, (S)-N-(3-(difluoromethyl)-4-fluorophenyl)-7'-methyl-1-(2-oxo-2-((1,1,1-trifluoro-2-methylpropan-2-yl)amino)acetyl)-2'H,4'H,7'H-spiro[pyrrolidine-3,3'-pyrrolo[3,4-b][1,4,5]oxathiazepine]-6'-carboxamide 1',1'-dioxide], the EC50 was < 500 nM.

With `C[C@@H](NC(=O)C(=O)N1CC[C@@]2(COc3c(c(Cl)n(C)c3C(=O)Nc3ccc(F)c(C(F)F)c3)S(=O)(=O)N2)C1)C(F)(F)F` [Example E29, (S)-8'-chloro-N-(3-(difluoromethyl)-4-fluorophenyl)-7'-methyl-1-(2-oxo-2-(((R)-1,1,1-trifluoropropan-2-yl)amino)acetyl)-2'H,4'H,7'H-spiro[pyrrolidine-3,3'-pyrrolo[3,4-b][1,4,5]oxathiazepine]-6'-carboxamide 1',1'-dioxide], the EC50 is < 500 nM.

As for `C[C@@H](NC(=O)C(=O)N1CCC2(CC1)COc1c(c(Cl)n(C)c1C(=O)Nc1ccc(F)c(Cl)c1)S(=O)(=O)N2)C(F)(F)F` [Example E30, (R)-8'-chloro-N-(3-chloro-4-fluorophenyl)-7'-methyl-1-(2-oxo-2-((1,1,1-trifluoropropan-2-yl)amino)acetyl)-2'H,4'H,7'H-spiro[piperidine-4,3'-pyrrolo[3,4-b][1,4,5]oxathiazepine]-6'-carboxamide 1',1'-dioxide], the EC50 was < 500 nM.

Take `C[C@@H](NC(=O)C(=O)N1CC2(COc3c(c(Cl)n(C)c3C(=O)Nc3ccc(F)c(Cl)c3)S(=O)(=O)N2)C1)C(F)(F)F` [Example E31, (R)-8'-chloro-N-(3-chloro-4-fluorophenyl)-7'-methyl-1-(2-oxo-2-((1,1,1-trifluoropropan-2-yl)amino)acetyl)-2'H,4'H,7'H-spiro[azetidine-3,3'-pyrrolo[3,4-b][1,4,5]oxathiazepine]-6'-carboxamide 1',1'-dioxide]: the EC50 is < 500 nM.

As to `C[C@@H](NC(=O)C(=O)N1CC2(COc3c(c(Cl)n(C)c3C(=O)Nc3ccc(F)c(C(F)F)c3)S(=O)(=O)N2)C1)C(F)(F)F` [Example E32, (R)-8'-chloro-N-(3-(difluoromethyl)-4-fluorophenyl)-7'-methyl-1-(2-oxo-2-((1,1,1-trifluoropropan-2-yl)amino)acetyl)-2'H,4'H,7'H-spiro[azetidine-3,3'-pyrrolo[3,4-b][1,4,5]oxathiazepine]-6'-carboxamide 1',1'-dioxide], the EC50 is < 500 nM.

As for `C[C@@H](NC(=O)C(=O)N1CC[C@]2(COc3c(c(Cl)n(C)c3C(=O)Nc3ccc(F)c(C(F)F)c3)S(=O)(=O)N2)C1)C(F)(F)F` [Example E34, (R)-8'-chloro-N-(3-(difluoromethyl)-4-fluorophenyl)-7'-methyl-1-(2-oxo-2-(((R)-1,1,1-trifluoropropan-2-yl)amino)acetyl)-2'H,4'H,7'H-spiro[pyrrolidine-3,3'-pyrrolo[3,4-b][1,4,5]oxathiazepine]-6'-carboxamide 1',1'-dioxide], the EC50 is < 500 nM.

By EC50 is commonly meant the midpoint of the concentration-response curve.
